Consider two compounds from PMC3789093 (Oncology Letters, 2013).

The IC50 is the point on the concentration scale where inhibition reaches its midpoint.

Each structure is given as a SMILES string.

Common to all, as to type: biochemical
For one experiment, the target named is T1, CYP1A2 (Homo sapiens, UniProt P05177).
T1 sequence (P05177 2-516): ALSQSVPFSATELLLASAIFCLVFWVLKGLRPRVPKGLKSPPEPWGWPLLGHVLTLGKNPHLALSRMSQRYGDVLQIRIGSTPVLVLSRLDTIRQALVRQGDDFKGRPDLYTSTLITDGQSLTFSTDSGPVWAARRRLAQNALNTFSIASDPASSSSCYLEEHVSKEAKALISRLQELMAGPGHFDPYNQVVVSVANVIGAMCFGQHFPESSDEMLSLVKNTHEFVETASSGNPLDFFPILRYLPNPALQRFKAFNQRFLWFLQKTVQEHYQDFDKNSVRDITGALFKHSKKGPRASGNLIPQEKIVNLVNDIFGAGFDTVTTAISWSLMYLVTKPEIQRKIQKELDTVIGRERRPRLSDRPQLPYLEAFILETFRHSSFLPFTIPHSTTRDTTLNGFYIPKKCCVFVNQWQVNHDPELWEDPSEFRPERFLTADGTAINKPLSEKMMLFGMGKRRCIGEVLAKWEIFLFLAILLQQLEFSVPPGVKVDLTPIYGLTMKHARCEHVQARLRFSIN
As to the kind of experiment: Vivid CYP450 Screening kit fluorescence assay.

The target in the next experiment is CYP3A4 (Homo sapiens, UniProt P08684). As to the kind of experiment: Vivid CYP450 Screening kit fluorescence assay.
For experiment [1], the target named is T2, CYP1A1 (Homo sapiens, UniProt P04798).
T2 sequence (P04798 1-512): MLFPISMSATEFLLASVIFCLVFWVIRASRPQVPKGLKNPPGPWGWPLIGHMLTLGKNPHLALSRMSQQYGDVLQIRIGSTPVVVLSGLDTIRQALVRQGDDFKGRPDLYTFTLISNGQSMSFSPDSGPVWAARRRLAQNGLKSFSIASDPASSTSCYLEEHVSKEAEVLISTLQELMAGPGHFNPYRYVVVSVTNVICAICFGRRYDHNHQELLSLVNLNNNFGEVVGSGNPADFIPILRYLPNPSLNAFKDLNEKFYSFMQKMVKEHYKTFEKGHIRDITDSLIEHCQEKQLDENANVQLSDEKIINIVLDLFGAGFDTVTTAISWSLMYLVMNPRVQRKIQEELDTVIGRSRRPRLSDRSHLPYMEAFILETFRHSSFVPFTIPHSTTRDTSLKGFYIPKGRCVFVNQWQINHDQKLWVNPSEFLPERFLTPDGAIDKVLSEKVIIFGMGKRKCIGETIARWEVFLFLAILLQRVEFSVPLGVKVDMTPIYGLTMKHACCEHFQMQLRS
As to the kind of experiment: P450-Glo CYP1A1 luminescence assay, recombinant enzyme in microsomes.

Experiment [2] concerns the target T2, CYP1A1. As to the kind of experiment: P450-Glo CYP1A1 luminescence assay, positive control at […].

Sequence of CYP3A4 (P08684 2-503): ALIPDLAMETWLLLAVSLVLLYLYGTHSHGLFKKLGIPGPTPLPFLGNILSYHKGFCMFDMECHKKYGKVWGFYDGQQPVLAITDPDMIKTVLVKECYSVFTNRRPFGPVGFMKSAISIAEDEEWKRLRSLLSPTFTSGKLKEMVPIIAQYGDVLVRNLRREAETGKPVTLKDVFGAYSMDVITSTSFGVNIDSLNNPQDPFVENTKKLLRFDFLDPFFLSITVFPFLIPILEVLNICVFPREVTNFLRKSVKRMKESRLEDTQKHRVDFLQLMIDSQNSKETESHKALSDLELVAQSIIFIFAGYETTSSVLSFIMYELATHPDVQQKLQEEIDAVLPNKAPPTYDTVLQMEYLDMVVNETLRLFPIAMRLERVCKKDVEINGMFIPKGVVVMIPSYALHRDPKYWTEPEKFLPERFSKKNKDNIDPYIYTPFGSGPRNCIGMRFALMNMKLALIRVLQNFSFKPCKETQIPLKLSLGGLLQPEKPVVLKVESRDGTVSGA

Turning to `CC(=O)O[C@H]1CC(C)(C)C(=C=C/C(C)=C/C=C/C(C)=C/C=C/C=C(C)/C=C/C=C(\C)C(=O)C[C@@]23O[C@]2(C)C[C@@H](O)CC3(C)C)[C@](C)(O)C1` [Fx, fucoxanthin], the IC50 against CYP1A2 was found to be 49 µM; against CYP3A4, 11 µM; on CYP1A1 [1], 12.5 µM.
With `COc1ccc2[nH]c([S+]([O-])Cc3ncc(C)c(OC)c3C)nc2c1` (stereo not shown) [OMP, omeprazole], the “P450-Glo CYP1A1 luminescence assay, positive control at 1 μM” value at CYP1A1 [2] was “significantly inhibited CYP1A1 activity, although the inhibition was weaker than that of omeprazole, a known CYP1A1 inhibitor”.
